Read-outs that look alike come from different tables or passages of the source.
Columns and labels:
[1] = test system: rabbit platelet-rich plasma (ADP-induced platelet aggregation); experiment: Inhibition of 10^-5 M ADP-induced platelet aggregation in rabbit platelet-rich plasma; type: cell-based; conditions: for inhibition at 100 µM / inhibition at 10 µM: Oryctolagus cuniculus, Platelet, 0.05 h; for inhibition at 100 µM: read-out: Inhibition (%) 10^-5 M ADP-Induced Aggregation; for inhibition at 10 µM: compound 10^-5 M
[2] = test system: rabbit platelet-rich plasma (collagen-induced platelet aggregation); experiment: Inhibition of collagen-induced platelet aggregation in rabbit platelet-rich plasma; type: cell-based; conditions: 3 minute incubation; for inhibition at 100 µM / inhibition at 10 µM: Oryctolagus cuniculus, Platelet, 0.05 h; for inhibition at 10 µM: compound 10^-5 M
platelet aggregation = conditions: cited from earlier work
[3] = test system: platelet-rich plasma (platelet aggregation); experiment: Persistence of platelet aggregation inhibitory activity on incubation with platelet-rich plasma; type: cell-based, rabbit
Description: The platelet aggregation inhibitory activity of representative compounds of the formula (I) were determined in terms of the percent inhibitory activity against 10-^5 M adenosine-5'-diphosphate (hereinafter referred to as "ADP")-induced or collagen-induced platelet aggregation in rabbit platelet-rich plasma according to the procedure described by G. V. R. Born and M. J. Cross in Journal of Physiology, Vol. 168, p. 178 (1963). […]

pKa = type: physicochemical
[4] = compound 10^-4 M, solvent DMSO, 3 minute incubation
[5] = solvent DMSO, 3 minute incubation
[6] = compound 10^-4 M, solvent PSS, 3 minute incubation
[7] = J. Med. Chem., Vol. 16, No. 12, 1381-1388 (1973)

Row | SMILES | inhibition at 100 µM [1, 4] [%] | inhibition at 100 µM ([2]; compound 10^-4 M, solvent DMSO) [%] | inhibition at 100 µM [1, 6] [%] | inhibition at 100 µM ([2]; compound 10^-4 M, solvent PSS) [%] | further results
1 | Nc1nc(SC2C3CC4CC(C3)CC2C4)nc2c1ncn2[C@@H]1O[C@H](CO)[C@@H](O)[C@H]1O (stereo partly drawn) [2-(β-Adamantyl)thioadenosine] | 95 | 72 |  |  | inhibition at 10 µM [1, 5]: 72%; inhibition at 10 µM ([2]; solvent DMSO): 61%
2 | CSc1nc(N)c2ncn([C@@H]3O[C@H](COP(=O)(O)O)[C@@H](O)[C@H]3O)c2n1 [2-methylthioadenosine-5'-monophosphate] |  |  |  |  | platelet aggregation inhibitory activity (prior art) (platelet aggregation; in words): only a weak platelet aggregation inhibitory activity
3 | Nc1ncnc2c1ncn2[C@@H]1O[C@H](CO)[C@@H](O)[C@H]1O [Adenosine] | 76 | 68 | 80 | 71 | inhibition at 10 µM ([1]; solvent PSS, 3 minute incubation): 58%; inhibition at 10 µM ([2]; solvent PSS): 51%; inhibitory activity after 60 minutes of incubation with the platelet-rich plasma ([3]; 60 minutes of incubation): disappears completely after 60 minutes of incubation; inhibitory activity (control) ([3]; in words, from Table 1): fairly potent inhibitory activity
4 | Nc1nc(Sc2cccnc2)nc2c1ncn2[C@@H]1O[C@H](CO)[C@@H](O)[C@H]1O [2-(β-Pyridyl)thioadenosine] |  |  |  |  | Inhibition (%) 10^-5 M ADP-Induced Aggregation [1, 6]: 61%; Inhibition (%) Collagen-Induced Aggregation ([2]; compound 10^-4 M, solvent PSS): 52%
5 | CSc1nc(N)c2ncn([C@@H]3O[C@H](CO)[C@@H](O)[C@H]3O)c2n1 [2-Methylthioadenosine, reference compound] |  |  | 12 | 25 | 
6 | CCCSc1nc(N)c2ncn([C@@H]3O[C@H](CO)[C@@H](O)[C@H]3O)c2n1 [2-Propylthioadenosine, reference compound] |  |  | 16 |  | 
7 | Cc1ccccc1Sc1nc(N)c2ncn([C@@H]3O[C@H](CO)[C@@H](O)[C@H]3O)c2n1 [2-(o-Tolyl)thioadenosine] |  |  |  |  | inhibition at 10 µM [1, 5]: 61%; inhibition at 10 µM ([2]; solvent DMSO): 57%
8 | Nc1ncnc2c1ncn2[C@@H]1O[C@H](COP(=O)(O)O)[C@@H](O)[C@H]1O [Ammonium Adenosine-5'-monophosphate, reference compound] |  |  | 5 |  | 
9 | Nc1nc(SCCO)nc2c1ncn2[C@@H]1O[C@H](CO)[C@@H](O)[C@H]1O [2-(β-Hydroxyethyl)thioadenosine] |  |  | 52 | 30 | 
10 | Nc1nc(S)nc2c1ncn2[C@@H]1O[C@H](CO)[C@@H](O)[C@H]1O [2-Thioadenosine] |  |  | 10 | 36 | pKa (pKa): 7.8; inhibitory activity in ADP-induced platelet aggregation (platelet aggregation; [7]): only a weak inhibitory activity; inhibitory activity in collagen-induced platelet aggregation (platelet aggregation; [7]): only a weak inhibitory activity
11 | Nc1nc(SCCCO)nc2c1ncn2[C@@H]1O[C@H](CO)[C@@H](O)[C@H]1O [2-(γ-Hydroxypropyl)thioadenosine] |  |  | 58 | 52 | 
12 | Nc1nc(SC2CC3CCC2C3)nc2c1ncn2[C@@H]1O[C@H](CO)[C@@H](O)[C@H]1O (stereo partly drawn) [2-(β-Norbornyl)thioadenosine] | 89 | 69 |  |  | inhibition at 10 µM [1, 5]: 62%; inhibition at 10 µM ([2]; solvent DMSO): 51%
13 | CSc1nc(N)c2ncn([C@@H]3O[C@H](COP(=O)(O)O)[C@@H](O)[C@H]3O)c2n1 [Ammonium 2-Methylthioadenosine-5'-monophosphate, reference compound] |  |  |  |  | inhibition at 100 µM [1]: 35%
14 | Nc1nc(Sc2ccc([N+](=O)[O-])cc2)nc2c1ncn2[C@@H]1O[C@H](CO)[C@@H](O)[C@H]1O [2-(p-Nitrophenyl)thioadenosine] | 92 | 81 |  |  | 
15 | Nc1nc(Sc2ccccc2)nc2c1ncn2[C@@H]1O[C@H](CO)[C@@H](O)[C@H]1O [2-Phenylthioadenosine] | 98 | 82 |  |  | inhibition at 10 µM [1, 5]: 62%; inhibition at 10 µM ([2]; solvent DMSO): 58%

Source: patent US3968102A, “S-substituted-2-thioadenosines” (Kohjin Co., Ltd., priority 1974, dated 1976)
